We go through 14 molecules from ChEMBL document CHEMBL1201862, “PubChem BioAssay data set” (2004).

What all share (experiment): NCI anticancer screen, dose series, 48 h
Experiment [1] has as its system CCRF-CEM.
For experiment [2], the system named is COLO 205.
For experiment [3], the system named is HCC 2998.
In experiment [4] the test system is HCT-15.
The test system of experiment [5] is HT-29.
Experiment [6] has as its system KM12.
Experiment [7] has as its system MOLT-4.
Experiment [8] relates to Malme-3M.
Experiment [9] deals with OVCAR-4.
Experiment [10] deals with RPMI-8226.
The subject of experiment [11] is SF-295.
For experiment [12], the system named is SF-539.
Experiment [13] relates to SK-OV-3.
For experiment [14], the system named is SN12C.
Experiment [15] deals with SNB-78.
Experiment [16] deals with UACC-62.

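Growth conditions: 96-well plates. Treatment: test compound, 48 hours, 5 concentrations. Analysis: linear interpolation between bracketing concentrations; unreached endpoints set to highest concentration. Here, GI50 denotes the concentration required for 50% inhibition of growth.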 Calls of active or inactive are those of the source. Cut-off read from the data, not from the text of the source: active = GI50 up to about 1.1 µM and inactive = higher.

For `CC1=C2C3OC(=O)C(C)C3C(O)C[C@@]2(C)C(=O)CC1` (some centres undefined), the GI50 in experiment [1] was > 100 µM (inactive); in experiment [2] it was > 100 µM (inactive); in experiment [3], > 100 µM (inactive); in experiment [4] it was more than 100 µM; in [5], > 100 µM (inactive); in experiment [6], > 100 µM (inactive). The GI50 in [7], in experiment [8], in experiment [9], in experiment [10], in [11] and in experiment [12] was > 100 µM (inactive) throughout. Besides, the GI50 in experiment [13], in experiment [14], in [15] and in experiment [16] was > 100 µM (inactive) in each case.

As for `Cc1ccc(/C=C/C(=O)c2sc(-n3nc(-c4ccccc4)cc3-c3ccccc3)nc2C)cc1`, the GI50 in experiment [1] was > 100 µM (inactive); in [2], > 100 µM (inactive); in experiment [3] it was 60.8 µM (inactive); in experiment [4], 57.7 µM; in experiment [5], 55 µM (inactive); in experiment [6], > 100 µM (inactive). Moreover, the GI50 in experiment [7] is 8.39 µM (inactive); in experiment [8], > 100 µM (inactive); in experiment [10], > 100 µM (inactive); in [11], > 100 µM (inactive); in experiment [12], > 100 µM (inactive); in experiment [13], > 100 µM (inactive). In addition, the GI50 in experiment [14], in [15] and in experiment [16] was > 100 µM (inactive) throughout.

Consider `CCOC(=O)NC(=O)c1cn(CCCOC(=O)CCCCCCCCC(=O)OCCCn2cc(C(=O)NC(=O)OCC)c(=O)[nH]c2=O)c(=O)[nH]c1=O`, for which the GI50 in [1] was 3.47 µM (inactive); in experiment [2], 18.2 µM (inactive); in [3], 10.3 µM (inactive); in experiment [4], 19.5 µM; in experiment [5], 34.8 µM (inactive); in experiment [7] it was 19 µM (inactive). Also, the GI50 was 4.41 µM (inactive) in [9]; 5.22 µM (inactive) in [10]; 22.8 µM (inactive) in experiment [11]; 23.8 µM (inactive) in experiment [12]; 40.5 µM (inactive) in experiment [13]; 28.2 µM (inactive) in experiment [14]. For the same molecule, the GI50 in experiment [15] was 8 µM (inactive); in experiment [16], 17.5 µM (inactive).

For `Cc1c(C)c2ccc3oc4ccccc4c3c2oc1=O`, the GI50 is > 100 µM (inactive) in [1]; > 100 µM (inactive) in [2]; > 100 µM (inactive) in [3]; more than 100 µM in experiment [4]; > 100 µM (inactive) in experiment [5]; > 100 µM (inactive) in experiment [6]. Besides, the GI50 was > 100 µM (inactive) in experiment [7]; > 100 µM (inactive) in experiment [8]; > 100 µM (inactive) in experiment [9]; > 100 µM (inactive) in experiment [10]; 67.3 µM (inactive) in experiment [11]; > 100 µM (inactive) in experiment [12]. For the same molecule, the GI50 in experiment [13], in experiment [14], in experiment [15] and in experiment [16] was > 100 µM (inactive) in each case.

With `COC1=CC(=O)NCCN1`, the GI50 in [1] is 51.4 µM (inactive); in experiment [2], 41.8 µM (inactive); in experiment [3], > 100 µM (inactive); in experiment [4] it was 52.2 µM; in experiment [5], > 100 µM (inactive); in experiment [6], > 100 µM (inactive). The GI50 in experiment [7], in experiment [8], in [9], in [11], in experiment [12] and in experiment [13] was > 100 µM (inactive) throughout. Besides, the GI50 in experiment [14], in experiment [15] and in experiment [16] was > 100 µM (inactive) throughout.

Regarding `CN(C)C(=O)/N=c1\ss/c(=N\C(=S)N(C)C)n1-c1ccccc1`, the GI50 in experiment [1] was 0.184 µM (active); in [2] it was 35.3 µM (inactive); in [3], > 100 µM (inactive); in experiment [4], 15 µM; in experiment [6], 57.5 µM (inactive); in experiment [7] it was 7.78 µM (inactive). The GI50 in experiment [8] was 42.9 µM (inactive); in [9], 16.8 µM (inactive); in experiment [10] it was 17 µM (inactive); in experiment [11], 40.2 µM (inactive); in [12] it was 35.4 µM (inactive); in experiment [13], > 100 µM (inactive). The GI50 in experiment [14] was 45.8 µM (inactive); in experiment [15] it was 65.8 µM (inactive); in [16], 14.4 µM (inactive).

For the molecule `C[n+]1c2ccccc2c(/C=N\NS(=O)(=O)c2ccc(Cl)cc2)c2ccccc21`, the GI50 in [1] is 15.1 µM (inactive); in [3], > 100 µM (inactive); in [4], 35.9 µM; in experiment [5], 34 µM (inactive); in [6], 44.2 µM (inactive); in experiment [7], 32.9 µM (inactive). For the same molecule, the GI50 in experiment [8] was > 100 µM (inactive); in [9], > 100 µM (inactive); in experiment [10], 42.6 µM (inactive); in experiment [11], 59.4 µM (inactive); in [12] it was 87.5 µM (inactive); in experiment [13], > 100 µM (inactive). In addition, the values for the GI50 in experiment [14], in [15] and in experiment [16] were 56.8 µM (inactive), > 100 µM (inactive) and 37.8 µM (inactive), respectively.

`COC(=O)c1ncc2c(=O)[nH]c3ccccc3c2c1C(=O)OC`: the GI50 in experiment [1] is > 100 µM (inactive); in experiment [3] it was > 100 µM (inactive); in experiment [4] it was more than 100 µM; in [5], > 100 µM (inactive); in experiment [6], > 100 µM (inactive); in experiment [7] it was > 100 µM (inactive). For the same molecule, the GI50 in experiment [8], in [9], in experiment [10], in [11], in experiment [12] and in experiment [14] was > 100 µM (inactive) each time. Further, the GI50 in [15] and in experiment [16] was > 100 µM (inactive) throughout.

In the case of `CCC(=O)OC1CCn2c1nc1c2C(=O)C(C)=C(NC(C)=O)C1=O` (centres undefined), the GI50 in experiment [1] is 0.736 µM (active); in experiment [2], 3.52 µM (inactive); in experiment [3], 2.31 µM (inactive); in [5] it was 1.69 µM (inactive); in [6], 1.92 µM (inactive); in experiment [7] it was 1.41 µM (inactive). The GI50 in [8] was 1.61 µM (inactive); in experiment [9] it was 0.198 µM (active); in experiment [10] it was 1.93 µM (inactive); in [11], 2.23 µM (inactive); in experiment [12], 1.75 µM (inactive); in experiment [13] it was 3.87 µM (inactive). In addition, the GI50 in experiment [14] was 1.79 µM (inactive); in experiment [15] it was 1.79 µM (inactive); in [16], 1.93 µM (inactive).

As for `COc1cccc(/C=C\c2cc(OC)c(OC)c(OC)c2)c1`, the GI50 in experiment [1] is 1.21 µM (inactive); in experiment [2], 0.807 µM (active); in [3], 3.94 µM (inactive); in experiment [4], 0.693 µM; in [5], 0.423 µM (active); in experiment [6], 0.543 µM (active). Also, the GI50 is 0.379 µM (active) in experiment [7]; 0.585 µM (active) in [8]; 14.4 µM (inactive) in experiment [9]; 0.845 µM (active) in [10]; 0.753 µM (active) in [12]; 4.38 µM (inactive) in [13]. Besides, the GI50 in experiment [14] is 4.08 µM (inactive); in [15], 1.24 µM (inactive); in experiment [16], 0.455 µM (active).

Consider `Nc1nc(=O)n(C2CC(O)C(O)C(CO)O2)cc1F` (centres undefined), for which the GI50 was > 100 µM (inactive) in experiment [1]; > 100 µM (inactive) in [2]; > 100 µM (inactive) in experiment [3]; more than 100 µM in experiment [4]; > 100 µM (inactive) in experiment [5]; > 100 µM (inactive) in experiment [7]. Besides, the GI50 in experiment [8], in experiment [9], in [10], in experiment [11], in experiment [12] and in experiment [14] was > 100 µM (inactive) throughout. The GI50 in experiment [15] and in experiment [16] was > 100 µM (inactive) throughout.

Regarding `N#Cc1ccccc1NC(=O)C(=O)C(C(=O)c1ccccc1-c1ccccc1)C1OC(=O)c2ccccc21` (centres undefined), the GI50 in experiment [1] is 18.4 µM (inactive); in experiment [2], 21.1 µM (inactive); in experiment [3], 15.5 µM (inactive); in experiment [5] it was 33.3 µM (inactive); in [6], 18.1 µM (inactive); in [7], 13.9 µM (inactive). Further, the GI50 was 10.4 µM (inactive) in [8]; 11.7 µM (inactive) in experiment [10]; 17.6 µM (inactive) in experiment [11]; 10.7 µM (inactive) in [12]; 41.2 µM (inactive) in experiment [13]; 11.2 µM (inactive) in [15]. Also, the GI50 in experiment [16] was 16.7 µM (inactive).

In the case of `CC1(C)OC(=O)[C@@](C)([C@H](O)c2ccccc2)O1`, the GI50 was > 100 µM (inactive) in [1]; 71 µM (inactive) in experiment [3]; > 100 µM (inactive) in [5]; > 100 µM (inactive) in experiment [6]; 45.1 µM (inactive) in experiment [7]; 28.7 µM (inactive) in experiment [8]. Besides, the GI50 in experiment [9], in [11], in [12], in [13], in [14] and in [15] was > 100 µM (inactive) throughout. In experiment [16], the GI50 was 78.2 µM (inactive).

On to `COc1ccc2cc3c4cc(OC)c(OC)cc4ccn3c2c1`, for which the GI50 in experiment [1], in experiment [2], in experiment [3], in experiment [5], in experiment [6] and in [7] was > 100 µM (inactive) in each case. Further, the GI50 in experiment [8], in experiment [9], in experiment [11], in [12], in [13] and in [14] was > 100 µM (inactive) in each case. The GI50 in experiment [15] and in experiment [16] was > 100 µM (inactive) throughout.
